Measured values as given in ChEMBL document CHEMBL1201862, “PubChem BioAssay data set” (2004).
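In this assay, cells in 96-well plates receive the compound at five concentrations for 48 hours. Endpoints are linearly interpolated between the surrounding concentrations. GI50: concentration for 50% inhibition of growth.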 Active and inactive are the calls of the source. Rule as the data show it: active = GI50 up to about 1.1 µM and inactive = higher.

How the values were obtained:
Assay in all cases: DTP human tumour cell line panel, 48 h
[1] = tested on: TK-10
[2] = tested on: A498
[3] = tested on: OVCAR-8
[4] = tested on: OVCAR-5
[5] = tested on: RPMI-8226
[6] = tested on: NCI-H226
[7] = tested on: CCRF-CEM
[8] = tested on: OVCAR-4
[9] = tested on: BT-549
[10] = tested on: NCI/ADR-RES
[11] = tested on: UO-31
[12] = tested on: MDA-MB-231
[13] = tested on: LOX IMVI
[14] = tested on: MDA-MB-435
[15] = tested on: UACC-257
[16] = tested on: COLO 205
[17] = tested on: SNB-75
[18] = tested on: HOP-62

Measured: GI50

CC(=O)OCCn1c(Cc2ccc(Cl)cc2)nn(C(C)=O)c1=O
inactive: [1] > 100 µM | [2] > 100 µM | [3] > 100 µM | [4] > 100 µM | [5] > 100 µM | [6] > 100 µM | [7] > 100 µM | [8] > 100 µM | [9] > 100 µM | [10] > 100 µM | [11] > 100 µM | [12] > 100 µM | [13] > 100 µM | [14] > 100 µM | [15] > 100 µM | [16] > 100 µM

CC1=C(C(=O)NC(C)(C)C)CC(C(=O)NC(C)(C)C)C(C)N1 (centres undefined)
inactive: [1] > 100 µM | [2] 73.1 µM | [3] > 100 µM | [17] 40.4 µM | [4] > 100 µM | [18] > 100 µM | [5] > 100 µM | [6] > 100 µM | [7] 61 µM | [8] > 100 µM | [9] > 100 µM | [10] > 100 µM | [11] > 100 µM | [12] > 100 µM | [13] > 100 µM | [14] 93.8 µM | [15] > 100 µM | [16] > 100 µM

C#Cc1cc(Br)c(OC(=O)C(C)(C)C)c(-c2cc(C#C)cc(Br)c2OC(=O)C(C)(C)C)c1
inactive: [1] > 100 µM | [2] 57.7 µM | [3] 65.3 µM | [4] 21.2 µM | [18] 55.6 µM | [5] 12.5 µM | [7] 10.3 µM | [8] 73.1 µM | [9] > 100 µM | [10] > 100 µM | [12] 35.1 µM | [13] 19.7 µM | [14] 45.8 µM | [15] 36.1 µM | [16] 31 µM

C[N+](C)(C)/C=N\c1cccc2nsnc12
inactive: [1] > 100 µM | [2] > 100 µM | [3] > 100 µM | [17] > 100 µM | [4] > 100 µM | [18] > 100 µM | [5] > 100 µM | [6] > 100 µM | [7] > 100 µM | [8] > 100 µM | [9] > 100 µM | [10] > 100 µM | [11] > 100 µM | [12] > 100 µM | [13] > 100 µM | [14] > 100 µM | [15] > 100 µM | [16] > 100 µM

CCCCCCCCCCCCCCCCOCC(CC(F)(F)P(=O)(OCC)OCC)OC(C)=O (centres undefined)
inactive: [1] 14 µM | [2] 12.5 µM | [17] 17.5 µM | [4] 18.3 µM | [5] 25.1 µM | [6] 14.4 µM | [8] 14.9 µM | [9] 15.2 µM | [10] 16.3 µM | [11] 16 µM | [12] 14.9 µM | [14] 18.6 µM | [15] 17.5 µM | [16] 18.2 µM

CCOC(=O)C1=CC(C)(C(=O)OCC)Nc2c(nc(OC)n(C)c2=O)N1 (centres undefined)
inactive: [1] > 10 µM | [2] > 10 µM | [3] > 10 µM | [17] > 10 µM | [4] > 10 µM | [18] > 10 µM | [5] > 10 µM | [6] > 10 µM | [7] > 10 µM | [8] > 10 µM | [9] > 10 µM | [10] > 10 µM | [11] > 10 µM | [12] > 10 µM | [13] > 10 µM | [14] > 10 µM | [15] > 10 µM | [16] > 10 µM

O=C(NC(CO)CO)c1ccc2cc(C(=O)N3CC(CCl)c4ccc([N+](=O)[O-])cc43)[nH]c2c1 (centres undefined)
inactive: [1] > 100 µM | [3] > 100 µM | [17] > 100 µM | [4] > 100 µM | [18] > 100 µM | [6] > 100 µM | [7] > 100 µM | [8] > 100 µM | [9] > 100 µM | [10] > 100 µM | [11] > 100 µM | [12] 66.1 µM | [13] > 100 µM | [14] > 100 µM | [15] > 100 µM | [16] 50 µM

O=C(Nc1sccc1S(=O)(=O)c1ccccc1)c1ccccc1
inactive: [1] > 100 µM | [2] > 100 µM | [3] > 100 µM | [17] > 100 µM | [4] > 100 µM | [18] > 70.5 µM | [5] > 100 µM | [6] > 100 µM | [8] > 57.9 µM | [9] > 100 µM | [10] > 100 µM | [11] > 100 µM | [12] > 36.1 µM | [13] > 100 µM | [14] 3.69 µM | [15] > 100 µM | [16] > 88.1 µM

NCC(O)CSCc1ccc(Cl)cc1 (centres undefined)
inactive: [1] > 100 µM | [2] > 100 µM | [3] > 100 µM | [4] > 100 µM | [18] > 100 µM | [5] > 100 µM | [6] > 100 µM | [7] > 100 µM | [8] > 100 µM | [9] > 100 µM | [10] > 100 µM | [11] > 100 µM | [12] > 100 µM | [13] > 100 µM | [14] > 100 µM | [15] > 100 µM | [16] > 100 µM
